The record followed here is patent US20150306096A1, “8'-HYDROXY-DIHYDROERGOTAMINE COMPOUNDS AND COMPOSITIONS” (MAP Pharmaceuticals, Inc., priority 2012, published 2015).

For orientation: IC50 means the concentration that gives 50% inhibition. Usually koff stands for the first-order rate constant of dissociation.

For assay [1], the target named is T1, human Serotonin 5-HT4e receptor (Homo sapiens, UniProt Q13639).
T1 construct: expressed in transfected cells; host or cells: CHO-K1 (transient)
As to the kind of experiment: cAMP HTRF functional assay (agonist/antagonist). In kind it is cell-based. As for the experimental part:
Functional profiling of agonist and antagonist activities of 8′-OH DHE on human Adrenergic α1D, Dopamine D2L, and Serotonin 5-HT1B, 5-HT1D, 5-HT1F, 5-HT3, 5-HT4e and 5-HT5A receptors (compared against the parent (DHE) molecule) was carried out as follows.
The SPA 35S-GTPγS tests were conducted with Euroscreen membrane preparations […]. The HTRF assays were conducted with recombinant cell lines. The receptor accession numbers, cellular background and reference compounds are as reported below in Table 10.
(4) DHE and 8′-OH DHE were tested for agonist and antagonist activity at the human Serotonin 5-HT1F and Serotonin 5-HT4E receptors using cAMP HTRF assay (in triplicate) at the following nanomolar concentrations: […]
Agonist activity of the test compounds was expressed as a percentage of the activity of the reference agonist at its EC100 concentration. Antagonist activity of the test compounds was expressed as a percentage of the inhibition of the reference agonist activity at its EC80 concentration. Dose-response data from the test compounds were analyzed with XLfit (IDBS) software using nonlinear regression applied to a sigmoidal dose-response model and the following equation: […]

Assay [2] addresses T2, human 5-HT1B receptor (Homo sapiens, UniProt P28222).
T2 construct: purchased Euroscreen; host or cells: CHO-K1
As to the kind of experiment: Radioligand competition binding and kinetics, CHO-K1 membranes. As for the experimental part: (§1) For kinetics of radioligand competitive binding, serial dilutions were performed from master solution in 100% DMSO to obtain intermediate concentrations 200-fold higher than the concentrations to be tested. Each test sample was diluted 100-fold in the assay buffer and dispensed into the test plate.
5-HT1B Radioligand Binding Assay
Assay buffer: 50 mM Tris (pH 7.4), 12.5 mM MgCl2, 0.1% ascorbic acid, 1 mM EDTA Washing buffer: 50 mM Tris (pH 7.4) Membrane: recombinant CHO-K1-5-HT1B membranes thawed on ice and diluted in assay buffer (7 μg/well)
Ligand: 5-CT (Tocris, 0458)
Radioligand: [^3H]-CT (Perkin Elmer, TRK1038, diluted in assay buffer for a final concentration of 0.6 nM) Filter plate: GF/B Unifilter plate (Perkin Elmer, 6005177) presoaked in 0.5% PEI for 2 hours at RT.
(§2) Determination of the Kon constant. Radioligand association kinetics on each receptor were performed by adding in the wells of a 96 well plate 50 μL of radioligand and 50 μL of membrane extracts. The samples were incubated for the times reported in Table 3 below at a temperature optimized for each receptor and filtered over a filter plate. After washing the filters 5 times with 0.5 mL of ice-cold washing buffer, 50 μL of Microscint 20 (Packard) were added to the filters and the plates were incubated 15 min on an orbital shaker and then counted for 1 min/well. This allowed determination of the kobs for each radioligand. Association kinetics were performed at 5 different radioligand concentrations optimized for each receptor (see Table 3 below) to determine 5 different kobs. The different kobs were then plotted against the [radioligand] and the K. was calculated using the following equation: kon=(kobs−koff)[radioligand].
(§3) Determination of the Koff constant. Radioligand dissociation kinetics on each receptor were performed by adding in the wells of a 96 well plate 45 μL of radioligand and 45 μL of membrane extracts. The samples were incubated as reported in Table 4 below at a temperature optimized for each receptor until binding equilibrium was reached as determined by the association kinetics experiment. Then, 100 μL of cold competitor (reference ligand) were added at a 200 fold excess (final concentration) for the times reported in Table 4 at the optimized temperature. The samples were then filtered over a filter plate. After washing the filters 5 times with 0.5 mL of ice-cold washing buffer, 50 μL of Microscint 20 (Packard) were added to the filters and the plates were incubated 15 min on an orbital shaker and then counted for 1 min/well. This allowed determination of the koff for each radioligand.
Determination of IC50 and Ki constant for each test compound. Radioligand competition binding on each receptor were performed by adding in the wells of a 96 well plate […] of test compound at increasing concentration as reported in Table 5 below, 25 μL of radioligand and 25 μL of membrane extracts. The samples were incubated for 60 min (or 4 hours for a second experiment on 5-HT2B receptors) at a temperature optimized for each receptor and then filtered over a filter plate. After washing the filters 5 times with 0.5 mL of ice-cold washing buffer, 50 μL of Microscint 20 (Packard) were added to the filters and the plates were incubated 15 min on an orbital shaker and then counted for 1 min/well. The test compounds were tested in duplicate at the nanomolar concentrations reported below in Table 5.
Determination of kon and koff constants for each test compound. Each compound was first assessed in a pilot experiment to evaluate its effect on the kinetic binding of each receptor-radioligand pair. These pilot experiments were performed at on compound concentration and were composed of 10 time-points measurements in duplicate (2, 5, 10, 20, 30, 45, 60, 90, 120 and 150 minutes).

Assay [3] has as its target T3, human 5-HT2B receptor (Homo sapiens, UniProt P41595).
T3 construct: purchased Euroscreen; host or cells: CHO-K1
The description is as above. As for the experimental part:
as §1
Ligand: 5-HT (Sigma, H-9523)
as §2, §3
Determination of IC50 and Ki constant for each test compound. […] After washing the filters 5 times with 0.5 mL of ice-cold washing buffer, 50 μL of Microscint 20 (Packard) were added to the filters and the plates were incubated 15 min on an orbital shaker and then counted for 1 min/well. […]
Determination of kon and koff constants for each test compound. Each compound was first assessed in a pilot experiment to evaluate its effect on the kinetic binding of each receptor-radioligand pair. […]

Read-outs that look alike come from different tables or passages of the source.

T2 sequence (P28222 whole entry): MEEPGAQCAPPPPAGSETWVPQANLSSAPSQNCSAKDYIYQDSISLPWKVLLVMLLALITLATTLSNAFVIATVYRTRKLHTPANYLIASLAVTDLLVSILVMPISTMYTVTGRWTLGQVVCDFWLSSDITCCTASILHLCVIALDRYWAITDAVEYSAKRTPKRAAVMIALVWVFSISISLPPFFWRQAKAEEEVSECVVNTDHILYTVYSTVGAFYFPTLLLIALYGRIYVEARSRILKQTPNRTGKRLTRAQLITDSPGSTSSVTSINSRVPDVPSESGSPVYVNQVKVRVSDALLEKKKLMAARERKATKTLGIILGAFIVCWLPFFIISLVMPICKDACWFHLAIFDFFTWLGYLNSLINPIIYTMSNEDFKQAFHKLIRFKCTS
T3 sequence (P41595 whole entry): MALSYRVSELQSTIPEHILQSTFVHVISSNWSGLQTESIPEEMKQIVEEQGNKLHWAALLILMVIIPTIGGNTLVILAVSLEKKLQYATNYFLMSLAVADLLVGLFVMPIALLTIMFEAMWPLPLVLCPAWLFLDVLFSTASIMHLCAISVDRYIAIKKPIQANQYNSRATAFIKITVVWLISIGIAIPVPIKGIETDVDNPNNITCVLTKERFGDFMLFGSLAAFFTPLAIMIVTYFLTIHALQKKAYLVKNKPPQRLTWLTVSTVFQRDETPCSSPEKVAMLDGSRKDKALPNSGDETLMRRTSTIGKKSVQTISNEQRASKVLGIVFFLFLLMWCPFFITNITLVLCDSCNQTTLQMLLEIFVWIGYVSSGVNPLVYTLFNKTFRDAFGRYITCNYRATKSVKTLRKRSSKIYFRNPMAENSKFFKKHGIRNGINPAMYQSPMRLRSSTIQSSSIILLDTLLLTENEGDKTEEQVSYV
T1 sequence (Q13639 1-378 isoform Q13639-5): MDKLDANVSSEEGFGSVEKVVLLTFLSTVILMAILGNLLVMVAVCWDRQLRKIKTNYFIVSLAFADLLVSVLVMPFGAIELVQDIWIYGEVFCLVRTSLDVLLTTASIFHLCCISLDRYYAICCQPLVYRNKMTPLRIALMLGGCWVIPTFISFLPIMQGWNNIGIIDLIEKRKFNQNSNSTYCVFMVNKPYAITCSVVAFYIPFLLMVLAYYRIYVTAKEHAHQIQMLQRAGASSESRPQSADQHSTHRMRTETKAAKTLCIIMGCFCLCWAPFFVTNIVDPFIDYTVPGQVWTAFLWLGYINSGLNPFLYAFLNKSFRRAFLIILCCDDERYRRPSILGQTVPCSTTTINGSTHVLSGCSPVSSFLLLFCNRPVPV

With `CN1C[C@H](C(=O)N[C@]2(C)O[C@@]3(O)[C@@H]4CCC(O)N4C(=O)[C@H](Cc4ccccc4)N3C2=O)C[C@@H]2c3cccc4[nH]cc(c34)C[C@H]21` (stereo partly shown) [8′-OH DHE, 8′-Hydroxy-Dihydroergotamine], in assay [1] (Serotonin 5-HT4e, cAMP HTRF, read-out: Functional activity (agonist)), the EC50 came to 109 nM. Also, in assay [2] (5-HT1B), the “Avg Dissociation half-life” value was 1.94 h. In addition, in assay [2] (5-HT1B), the “Avg Koff” value was determined as 9.83e-05 s⁻¹. In addition, the IC50 worked out at 0.77 nM in assay [2] (5-HT1B, [3H]-CT, read-out: IC50 from binding assay) and 7.73 nM in assay [3] (5-HT2B, [3H]-Mesulergine, read-out: IC50 from binding assay).

`CN1C[C@H](C(=O)N[C@]2(C)O[C@@]3(O)[C@@H]4CCCN4C(=O)[C@H](Cc4ccccc4)N3C2=O)C[C@@H]2c3cccc4[nH]cc(c34)C[C@H]21` [DHE, Dihydroergotamine] yielded an EC50 in assay [1] of 105 nM. The IC50 in assay [2] amounted to 0.55 nM; in assay [3] it was 12.9 nM. The “Avg Dissociation half-life” value in assay [2] (5-HT1B) stood at 1.38 h. Besides, in assay [2] (read-out: Avg Koff), the koff was 0.00014 s⁻¹.
